Laboratory results taken from US20100105705A1, “PURINYL DERIVATIVES AND THEIR USE AS POTASSIUM CHANNEL MODULATORS” (NeuroSearch A/S, priority 2007, published 2010).

Target: T1, hSK3 channels (Homo sapiens, UniProt Q9UGI6)
T1 construct: expressed in transfected cells; host or cells: HEK293
Assay: Whole-cell patch-clamp recording of ionic current through SK channels, subtype 3, in HEK293 cells expressing hSK3
Format: cell-based
Description: The ionic current through small-conductance Ca^2+-activated K^+ channels (SK channels, subtype 3) is recorded using the whole-cell configuration of the patch-clamp technique in a classic patch-clamp set-up using HEK293 tissue culture cells expressing hSK3 channels as described in e.g. WO 2006/100212.
The SC100 value determined is defined as the Stimulating Concentration required for increasing the baseline current by 100%. The below SC100 values are an indication of the SK3 activating properties of the compounds of the invention.

Compound | SC100 (Stimulating Concentration required for increasing the baseline current by 100%)
Cn1cnc2c(Nc3ccc(Cl)cc3)nc(-n3ccc(C(F)(F)F)n3)nc21 [Compound 6.1, (4-Chloro-phenyl)-[9-methyl-2-(3-trifluoromethyl-pyrazol-1-yl)-9H-purin-6-yl]-amine] | 0.3 µM
Cn1cnc2c(Nc3ccc(Cl)cc3)nc(-n3cccn3)nc21 [Compound 6.2, (4-Chloro-phenyl)-(9-methyl-2-pyrazol-1-yl-9H-purin-6-yl)-amine] | 0.18 µM
Cn1cnc2c(NC3CCCCC3)nc(-n3cccn3)nc21 [Compound 6.3, Cyclohexyl-(9-methyl-2-pyrazol-1-yl-9H-purin-6-yl)-amine] | 0.7 µM
Cc1ccn(-c2nc(Nc3ccc(F)cc3)c3ncn(C)c3n2)n1 [Compound 6.6, (4-Fluoro-phenyl)-[9-methyl-2-(3-methyl-pyrazol-1-yl)-9H-purin-6-yl]-amine] | 0.02 µM
Cn1cnc2c(Nc3ccc(Cl)cc3)nc(-n3ccc(N)n3)nc21 [Compound 7.1, [2-(3-Amino-pyrazol-1-yl)-9-methyl-9H-purin-6-yl]-(4-chloro-phenyl)-amine] | 0.6 µM

The remaining lines, values ahead:

SC100 (Stimulating Concentration required for increasing the baseline current by 100%) | Compound
0.02 µM | Cc1ccn(-c2nc(Nc3ccc(Cl)cc3)c3ncn(C)c3n2)n1 [Compound 9.1, (4-Chloro-phenyl)-[9-methyl-2-(3-methyl-pyrazol-1-yl)-9H-purin-6-yl]-amine]
0.6 µM | Cc1ccn(-c2nc(NCCc3ccccc3)c3ncn(C)c3n2)n1 [Compound 9.3, [9-Methyl-2-(3-methyl-pyrazol-1-yl)-9H-purin-6-yl]-phenethyl-amine]
0.15 µM | Cc1c2c(nn1-c1nc(Nc3ccc(F)cc3)c3ncn(C)c3n1)CCC2 [Compound 9.5, (4-Fluoro-phenyl)-[9-methyl-2-(3-methyl-5,6-dihydro-4H-cyclopentapyrazol-2-yl)-9H-purin-6-yl]-amine]

Test system: not given
Assay: not given

melting point | Compound
185.4 to 190.5 °C | Cn1cnc2c(Nc3ccc(Cl)cc3)nc(-c3ccccn3)nc21 [Compound 13.1, (4-Chloro-phenyl)-(9-methyl-2-pyridin-2-yl-9H-purin-6-yl)-amine]
